Tests used:
Format in all cases: biochemical
CDK6/CycD3 = CDK6/CycD3 (Homo sapiens (Human), UniProt Q00534); experiment: CDK6/CycD3 kinase assay
Method: [The procedure below names another target; the source lists this target under the same test.] (§1) Selected compounds disclosed herein were tested in CDK4/cyclinD1, CDK2/CycA and CDK2/cyclinE kinase assays by Nanosyn (Santa Clara, Calif.) to determine their inhibitory effect on these CDKs. The assays were performed using microfluidic kinase detection technology (Caliper Assay Platform). The compounds were tested in 12-point dose-response format in singlicate at Km for ATP. Phosphoacceptor substrate peptide concentration used was 1 μM for all assays and Staurosporine was used as the reference compound for all assays.

CDK7/CycH/MAT1 = CDK7/CycH/MAT1 (Homo sapiens (Human), UniProt P50613); experiment: CDK7/CycH/MAT1 kinase assay
CDK5/p35 = CDK5/p35 (Homo sapiens (Human), UniProt Q00535); experiment: CDK5/p35 kinase assay
CDK2/CycE = CDK2/CycE (Homo sapiens (Human), UniProt P24941); experiment: CDK2/CycE kinase assay (Caliper microfluidic); conditions: at Km for ATP
Method: as §1, with “assays. Specifics of each assay are as described below:” for “assays.”
CDK2/CyclinE: Enzyme concentration: 0.28 nM; ATP concentration: 100 μM; Incubation time: 1 hr.

CDK9/CycT = CDK9/CycT (Homo sapiens (Human), UniProt P50750); experiment: CDK9/CycT kinase assay
CDK4/CycD = CDK4/CycD (Homo sapiens (Human), UniProt P11802); experiment: CDK4/CycD kinase assay (Caliper microfluidic); conditions: at Km for ATP
Method: as §1, with “assays. Specifics of each assay are as described below:” for “assays.”
CDK4/CyclinD1: Enzyme concentration: 1 nM; ATP concentration: 200 μM; Incubation time: 10 hr.

CDK2/CycA = CDK2/CycA (Homo sapiens (Human), UniProt P24941); experiment: CDK2/CycA kinase assay (Caliper microfluidic); conditions: at Km for ATP
Method: as §1, with “assays. Specifics of each assay are as described below:” for “assays.”
CDK2/CyclinA: Enzyme concentration: 0.2 nM; ATP concentration: 50 μM; Incubation time: 3 hr.

CDK5/p25 = CDK5/p25 (Homo sapiens (Human), UniProt Q00535); experiment: CDK5/p25 kinase assay
Chain of CDK5/p25 (Q00535 whole entry): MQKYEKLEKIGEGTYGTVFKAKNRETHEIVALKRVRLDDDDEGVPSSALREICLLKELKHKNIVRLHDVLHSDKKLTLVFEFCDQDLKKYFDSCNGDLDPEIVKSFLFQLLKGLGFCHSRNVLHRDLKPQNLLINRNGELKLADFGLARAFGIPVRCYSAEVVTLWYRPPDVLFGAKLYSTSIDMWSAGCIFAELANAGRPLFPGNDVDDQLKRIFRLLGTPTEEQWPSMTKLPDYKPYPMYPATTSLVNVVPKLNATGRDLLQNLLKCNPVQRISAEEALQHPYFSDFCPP

Chain of CDK4/CycD (P11802 whole entry): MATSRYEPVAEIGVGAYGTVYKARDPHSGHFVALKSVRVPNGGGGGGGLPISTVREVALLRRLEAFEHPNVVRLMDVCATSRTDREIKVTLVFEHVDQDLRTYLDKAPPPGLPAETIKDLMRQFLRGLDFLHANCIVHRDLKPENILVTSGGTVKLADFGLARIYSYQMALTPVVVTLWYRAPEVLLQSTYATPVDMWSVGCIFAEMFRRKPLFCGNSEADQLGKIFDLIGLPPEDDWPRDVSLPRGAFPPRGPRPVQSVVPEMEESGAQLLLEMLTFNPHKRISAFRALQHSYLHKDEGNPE
Chain of CDK4/CycD (P24385 whole entry partner): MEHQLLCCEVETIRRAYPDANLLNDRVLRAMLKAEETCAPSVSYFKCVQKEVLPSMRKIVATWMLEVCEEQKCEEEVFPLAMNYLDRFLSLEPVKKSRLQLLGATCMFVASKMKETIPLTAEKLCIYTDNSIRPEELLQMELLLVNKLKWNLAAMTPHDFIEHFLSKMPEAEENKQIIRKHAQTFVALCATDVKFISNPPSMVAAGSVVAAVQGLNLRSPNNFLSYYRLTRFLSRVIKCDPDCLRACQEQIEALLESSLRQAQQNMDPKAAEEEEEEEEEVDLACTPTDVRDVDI
Chain of CDK5/p35 (Q00535 whole entry): as the sequence (Q00535 whole entry) above
Chain of CDK5/p35 (Q15078 whole entry partner): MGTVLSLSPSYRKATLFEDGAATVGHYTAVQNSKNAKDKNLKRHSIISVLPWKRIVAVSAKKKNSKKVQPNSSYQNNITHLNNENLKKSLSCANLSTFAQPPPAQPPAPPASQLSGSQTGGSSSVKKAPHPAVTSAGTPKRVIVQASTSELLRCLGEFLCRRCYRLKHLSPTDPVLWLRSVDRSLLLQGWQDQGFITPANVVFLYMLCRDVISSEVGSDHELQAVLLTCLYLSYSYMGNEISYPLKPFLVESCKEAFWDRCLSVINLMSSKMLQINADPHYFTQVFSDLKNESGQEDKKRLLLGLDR
Chain of CDK7/CycH/MAT1 (P50613 whole entry): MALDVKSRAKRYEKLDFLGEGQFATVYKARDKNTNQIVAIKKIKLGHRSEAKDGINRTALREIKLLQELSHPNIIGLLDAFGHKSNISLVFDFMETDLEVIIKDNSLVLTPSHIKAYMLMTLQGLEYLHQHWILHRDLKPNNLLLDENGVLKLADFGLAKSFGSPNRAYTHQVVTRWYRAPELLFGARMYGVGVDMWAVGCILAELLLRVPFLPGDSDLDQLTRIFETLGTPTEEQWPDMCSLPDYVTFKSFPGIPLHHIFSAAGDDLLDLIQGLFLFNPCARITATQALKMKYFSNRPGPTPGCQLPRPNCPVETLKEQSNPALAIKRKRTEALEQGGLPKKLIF
Chain of CDK7/CycH/MAT1 (P51946 whole entry partner): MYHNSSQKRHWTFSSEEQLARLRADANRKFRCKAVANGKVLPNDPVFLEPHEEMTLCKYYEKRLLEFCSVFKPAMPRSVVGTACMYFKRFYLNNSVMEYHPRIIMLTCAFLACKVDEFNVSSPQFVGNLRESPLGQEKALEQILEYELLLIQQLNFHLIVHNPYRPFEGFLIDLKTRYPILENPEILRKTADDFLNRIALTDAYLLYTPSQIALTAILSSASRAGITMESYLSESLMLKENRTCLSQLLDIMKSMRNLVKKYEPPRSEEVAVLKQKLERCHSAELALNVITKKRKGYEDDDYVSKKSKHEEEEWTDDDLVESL
Chain of CDK7/CycH/MAT1 (P51948 whole entry partner): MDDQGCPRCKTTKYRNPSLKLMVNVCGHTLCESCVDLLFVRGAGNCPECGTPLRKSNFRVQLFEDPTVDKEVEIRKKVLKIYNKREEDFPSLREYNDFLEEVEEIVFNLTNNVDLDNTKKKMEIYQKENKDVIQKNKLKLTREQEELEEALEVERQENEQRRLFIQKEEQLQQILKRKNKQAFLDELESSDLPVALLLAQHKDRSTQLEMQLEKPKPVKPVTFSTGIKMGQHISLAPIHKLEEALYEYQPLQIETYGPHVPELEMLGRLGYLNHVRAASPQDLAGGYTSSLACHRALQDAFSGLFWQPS
Chain of CDK9/CycT (P50750 whole entry): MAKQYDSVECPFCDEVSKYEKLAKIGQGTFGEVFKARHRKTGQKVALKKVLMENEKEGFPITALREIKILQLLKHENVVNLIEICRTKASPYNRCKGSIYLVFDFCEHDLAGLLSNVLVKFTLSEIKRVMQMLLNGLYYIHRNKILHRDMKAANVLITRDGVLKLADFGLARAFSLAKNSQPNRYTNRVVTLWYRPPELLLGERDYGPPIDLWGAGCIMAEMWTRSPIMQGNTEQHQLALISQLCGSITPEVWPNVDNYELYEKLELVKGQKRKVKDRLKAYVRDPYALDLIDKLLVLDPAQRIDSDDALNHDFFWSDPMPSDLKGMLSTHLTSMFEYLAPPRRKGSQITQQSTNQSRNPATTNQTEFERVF
Chain of CDK9/CycT (O60563 whole entry partner): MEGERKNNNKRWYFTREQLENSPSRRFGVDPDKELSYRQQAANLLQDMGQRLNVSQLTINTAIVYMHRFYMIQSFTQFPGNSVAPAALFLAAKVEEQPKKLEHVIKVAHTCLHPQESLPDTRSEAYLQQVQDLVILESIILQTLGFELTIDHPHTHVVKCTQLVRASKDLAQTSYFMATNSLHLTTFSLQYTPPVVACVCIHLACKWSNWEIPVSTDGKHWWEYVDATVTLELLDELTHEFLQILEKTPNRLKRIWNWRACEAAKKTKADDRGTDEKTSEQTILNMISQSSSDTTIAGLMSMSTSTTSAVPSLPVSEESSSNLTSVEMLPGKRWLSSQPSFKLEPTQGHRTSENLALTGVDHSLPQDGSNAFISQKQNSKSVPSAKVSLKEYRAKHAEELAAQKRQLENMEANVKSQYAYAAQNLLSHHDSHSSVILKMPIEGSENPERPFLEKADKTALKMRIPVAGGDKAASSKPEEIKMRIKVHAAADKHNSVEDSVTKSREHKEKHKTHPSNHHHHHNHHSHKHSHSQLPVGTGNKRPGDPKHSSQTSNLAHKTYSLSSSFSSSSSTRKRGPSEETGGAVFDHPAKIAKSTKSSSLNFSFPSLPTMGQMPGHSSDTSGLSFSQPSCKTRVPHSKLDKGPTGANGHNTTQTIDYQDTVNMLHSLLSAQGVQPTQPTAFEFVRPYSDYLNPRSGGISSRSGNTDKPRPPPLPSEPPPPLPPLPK
Chain of CDK6/CycD3 (Q00534 whole entry): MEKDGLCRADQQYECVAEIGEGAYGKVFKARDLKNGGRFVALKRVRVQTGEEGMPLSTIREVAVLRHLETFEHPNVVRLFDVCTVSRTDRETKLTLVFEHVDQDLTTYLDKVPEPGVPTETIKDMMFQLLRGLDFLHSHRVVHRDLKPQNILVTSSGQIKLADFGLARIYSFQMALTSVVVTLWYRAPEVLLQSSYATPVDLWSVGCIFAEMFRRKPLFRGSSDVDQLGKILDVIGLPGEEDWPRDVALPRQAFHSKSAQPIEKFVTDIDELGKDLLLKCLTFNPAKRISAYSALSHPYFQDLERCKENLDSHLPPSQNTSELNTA
Chain of CDK6/CycD3 (P30281 whole entry partner): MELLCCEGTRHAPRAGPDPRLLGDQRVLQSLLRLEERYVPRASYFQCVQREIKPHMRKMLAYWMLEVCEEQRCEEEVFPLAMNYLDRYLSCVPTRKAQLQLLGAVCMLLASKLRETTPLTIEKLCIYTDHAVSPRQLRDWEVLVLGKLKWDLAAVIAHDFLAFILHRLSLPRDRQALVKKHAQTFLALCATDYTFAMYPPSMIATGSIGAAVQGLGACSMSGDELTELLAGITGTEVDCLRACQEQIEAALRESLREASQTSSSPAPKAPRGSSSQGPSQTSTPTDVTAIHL

| SMILES | IC50 (CDK6/CycD3) | IC50 (CDK7/CycH/MAT1) | IC50 (CDK5/p35) | IC50 (CDK2/CycE) | IC50 (CDK9/CycT) | IC50 (CDK4/CycD) | IC50 (CDK2/CycA) | IC50 (CDK5/p25) |
| --- | --- | --- | --- | --- | --- | --- | --- | --- |
| CN1CCN(c2ccc(Nc3nccc(N4C(=O)NCC45CCCCC5)n3)nc2)CC1 [compound 6, 1-(2-{[5-(4-methylpiperazin-1-yl)pyridin-2-yl]amino}pyrimidin-4-yl)-1,3-diazaspiro[4.5]decan-2-one] | 4.98 µM | 95.9 µM | > 100 µM | > 100 µM | 9.63 µM | 1 µM | > 100 µM | > 100 µM |
| CN1CCN(c2ccc(Nc3nccc(N4C(=O)N(C)CC45CCCCC5)n3)nc2)CC1 [compound 8, 3-Methyl-1-(2-{[5-(4-methylpiperazin-1-yl)pyridin-2-yl]amino}pyrimidin-4-yl)-1,3-diazaspiro[4.5]decan-2-one] | 16.2 µM | > 100 µM | > 100 µM | > 100 µM | > 100 µM | 3.27 µM | > 100 µM | > 100 µM |
| CN1CCN(c2ccc(Nc3nccc(N4C(=O)N(Cc5ccccc5)CC45CCCCC5)n3)nc2)CC1 [compound 10, 3-benzyl-1-(2-{[5-(4-methylpiperazin-1-yl)pyridin-2-yl]amino}pyrimidin-4-yl)-1,3-diazaspiro[4.5]decan-2-one] | 35.8 µM | > 100 µM | > 100 µM | > 100 µM | > 100 µM | 2.71 µM | > 100 µM | > 100 µM |
| CN1CCN(c2ccc(Nc3nccc(N4CC(=O)NCC45CCCCC5)n3)nc2)CC1 [compound 20, 1-(2-{[5-(4-Methylpiperazin-1-yl)pyridin-2-yl]amino}pyrimidin-4-yl)-1,4-diazaspiro[5.5]undecan-3-one] | 1 µM | > 100 µM | 38 µM | > 100 µM | 0.75 µM | 0.44 µM | > 100 µM | 39 µM |
| CN1CCN(c2ccc(Nc3nccc(N4CCNC(=O)C4)n3)nc2)CC1 [compound 32, 4-(2-{[5-(4-Methylpiperazin-1-yl)pyridin-2-yl]amino}pyrimidin-4-yl)piperazin-2-one] | 51 µM | – | – | – | 22.9 µM | 14.4 µM | – | – |
| CN1CCN(c2ccc(Nc3nccc(N4C(c5ccccc5)=NCC45CCCCC5)n3)nc2)CC1 [compound 53, N-(5-(4-methylpiperazin-1-yl)pyridin-2-yl)-4-(2-phenyl-1,3-diazaspiro[4.5]dec-2-en-1-yl)pyrimidin-2-amine] | 71.3 µM | > 100 µM | > 100 µM | > 100 µM | > 100 µM | > 100 µM | > 100 µM | > 100 µM |
| CN1CCN(c2ccc(Nc3nccc(N4C(c5ccoc5)=NCC45CCCCC5)n3)nc2)CC1 [compound 54, 4-(2-(furan-3-yl)-1,3-diazaspiro[4.5]dec-2-en-1-yl)-N-(5-(4-methylpiperazin-1-yl)pyridin-2-yl)pyrimidin-2-amine] | > 100 µM | > 100 µM | > 100 µM | > 100 µM | > 100 µM | > 100 µM | > 100 µM | > 100 µM |
| CN1CCN(c2ccc(Nc3nccc(N4C(c5ccsc5)=NCC45CCCCC5)n3)nc2)CC1 [compound 55, N-(5-(4-methylpiperazin-1-yl)pyridin-2-yl)-4-(2-(thiophen-3-yl)-1,3-diazaspiro[4.5]dec-2-en-1-yl)pyrimidin-2-amine] | > 100 µM | > 100 µM | > 100 µM | > 100 µM | > 100 µM | > 100 µM | > 100 µM | > 100 µM |

The next lines start with the values.

| IC50 (CDK6/CycD3) | IC50 (CDK7/CycH/MAT1) | IC50 (CDK5/p35) | IC50 (CDK2/CycE) | IC50 (CDK9/CycT) | IC50 (CDK4/CycD) | IC50 (CDK2/CycA) | IC50 (CDK5/p25) | SMILES |
| --- | --- | --- | --- | --- | --- | --- | --- | --- |
| 3.4 µM | 29.4 µM | 73 µM | > 100 µM | 9.3 µM | 8.1 µM | > 100 µM | 95 µM | CN1CCN(c2ccc(Nc3nccc(N4CCNC4=O)n3)nc2)CC1 [compound 16, 1-(2-{[5-(4-methylpiperazin-1-yl)pyridin-2-yl]amino}pyrimidin-4-yl)imidazolidin-2-one] |
| > 100 µM | – | – | – | – | > 100 µM | – | – | CC(C)C1CC(=O)NN1c1ccnc(Nc2ccc(N3CCN(C)CC3)cn2)n1 (stereo not shown) [compound 28, 5-Isopropyl-1-(2-{[5-(4-methylpiperazin-1-yl)pyridin-2-yl]amino}pyrimidin-4-yl)pyrazolidin-3-one] |
| 5.7 µM | – | – | 71 µM | – | 1.7 µM | 88 µM | – | C[C@H]1CNC(=O)CN1c1ccnc(Nc2ccc(N3CCN(C)CC3)cn2)n1 [compound 40, (5S)-5-Methyl-4-(2-{[5-(4-methylpiperazin-1-yl)pyridin-2-yl]amino}pyrimidin-4-yl)piperazin-2-one] |
| 3.3 µM | – | – | 23 µM | – | 0.761 µM | 9.7 µM | – | CC(C)[C@H]1CNC(=O)N1c1ccnc(Nc2ccc(N3CCN(C)CC3)cn2)n1 [compound 46, (5S)-5-Isopropyl-1-(2-{[5-(4-methylpiperazin-1-yl)pyridin-2-yl]amino}pyrimidin-4-yl)imidazolidin-2-one] |
| 4 µM | – | – | 57 µM | – | 1.5 µM | 35.5 µM | – | C[C@H]1CNC(=O)N1c1ccnc(Nc2ccc(N3CCN(C)CC3)cn2)n1 [compound 52, (5S)-5-methyl-1-(2-{[5-(4-methylpiperazin-1-yl)pyridin-2-yl]amino}pyrimidin-4-yl)imidazolidin-2-one] |
| 33 µM | – | – | > 100 µM | – | 4 µM | > 100 µM | – | CC[C@H]1CC(=O)NN1c1ccnc(Nc2ccc(N3CCN(C)CC3)cn2)n1 [compound 56, (S)-5-ethyl-1-(2-((5-(4-methylpiperazin-1-yl)pyridin-2-yl)amino)pyrimidin-4-yl)pyrazolidin-3-one] |
